# Where a name gives a salt, the structure may show the parent alone.
# Test system: Acinetobacter baumannii ATCC17961
# Test: Antimicrobial susceptibility testing: 90% growth inhibitory concentration (IC90) determination in Iso-Sensitest broth, OD600 growth
# Format: cell-based
# Conditions: Acinetobacter baumannii, ATCC17961, 16 h, read-out: A. baumannii ATCC 17961 IC90 (uM), strain ATCC 17961, OD600 growth over 16 h
# In short: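 Twofold compound dilutions (e.g. 50 to 0.097 μM final) in Iso-Sensitest broth with ~5×10^(5) CFU/ml, 35±2 °C. OD600 read every 20 min over 16 h; IC90 from growth inhibition during logarithmic phase.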
row,Structure (SMILES),IC90 [µM]
1,"CCc1cc(Nc2nccn3c(-c4cn(CC(O)CO)nc4C(F)(F)F)cnc23)ccc1C(=O)NCCOCCN (stereo not drawn) [Example 314, N-[2-(2-aminoethoxy)ethyl]-4-[[3-[1-(2,3-dihydroxypropyl)-3-(trifluoromethyl)pyrazol-4-yl]imidazo[1,2-a]pyrazin-8-yl]amino]-2-ethylbenzamide formate]",1.43
2,"CCc1cc(Nc2nccn3c(-c4cn(CC(O)CCO)nc4C(F)(F)F)cnc23)ccc1C(=O)NCCOCCN (stereo not drawn) [Example 315, N-[2-(2-aminoethoxy)ethyl]-4-[[3-[1-(2,4-dihydroxybutyl)-3-(trifluoromethyl)pyrazol-4-yl]imidazo[1,2-a]pyrazin-8-yl]amino]-2-ethylbenzamide formate]",1.46
3,"CCc1cc(Nc2nccn3c(-c4cn(CC(N)=O)nc4C(F)(F)F)cnc23)ccc1C(=O)NCCOCCN [Example 316, N-[2-(2-aminoethoxy)ethyl]-4-[[3-[1-(2-amino-2-oxoethyl)-3-(trifluoromethyl)pyrazol-4-yl]imidazo[1,2-a]pyrazin-8-yl]amino]-2-ethylbenzamide formate]",1.52
4,"CCc1cc(Nc2nccn3c(-c4cn(CCN5CCOCC5)nc4C(F)(F)F)cnc23)ccc1C(=O)NCCOCCN [Example 317, N-[2-(2-aminoethoxy)ethyl]-2-ethyl-4-[[3-[1-(2-morpholin-4-ylethyl)-3-(trifluoromethyl)pyrazol-4-yl]imidazo[1,2-a]pyrazin-8-yl]amino]benzamide formate]",1.88
5,"N[C@@H]1CCN(C(=O)N2CCN(C(=O)c3ccc(Nc4nccn5c(-c6c[nH]nc6C(F)(F)F)cnc45)cc3Cl)CC2)C1 [Example 326, [4-[(3R)-3-aminopyrrolidine-1-carbonyl]piperazin-1-yl]-[2-chloro-4-[[3-[3-(trifluoromethyl)-1H-pyrazol-4-yl]imidazo[1,2-a]pyrazin-8-yl]amino]phenyl]methanone formate]",0.135
6,"NC1CC(C(=O)N2CCN(C(=O)c3ccc(Nc4nccn5c(-c6c[nH]nc6C(F)(F)F)cnc45)cc3Cl)CC2)C1 (stereo not drawn) [Example 327, [4-(3-aminocyclobutanecarbonyl)piperazin-1-yl]-[2-chloro-4-[[3-[3-(trifluoromethyl)-1H-pyrazol-4-yl]imidazo[1,2-a]pyrazin-8-yl]amino]phenyl]methanone formate]",0.146
7,"N[C@H]1CCN(C(=O)N2CCN(C(=O)c3ccc(Nc4nccn5c(-c6c[nH]nc6C(F)(F)F)cnc45)cc3Cl)CC2)C1 [Example 328, [4-[(3S)-3-aminopyrrolidine-1-carbonyl]piperazin-1-yl]-[2-chloro-4-[[3-[3-(trifluoromethyl)-1H-pyrazol-4-yl]imidazo[1,2-a]pyrazin-8-yl]amino]phenyl]methanone formate]",0.157
8,"N[C@H]1CC[C@@H](C(=O)N2CCN(C(=O)c3ccc(Nc4nccn5c(-c6c[nH]nc6C(F)(F)F)cnc45)cc3Cl)CC2)C1 [Example 340, [4-[(1R,3S)-3-aminocyclopentanecarbonyl]piperazin-1-yl]-[2-chloro-4-[[3-[3-(trifluoromethyl)-1H-pyrazol-4-yl]imidazo[1,2-a]pyrazin-8-yl]amino]phenyl]methanone formate]",0.194

# Same assay, conditions: Acinetobacter baumannii, ATCC17961, 16 h, strain ATCC 17961, OD600 growth over 16 h, read-out: A. baumannii ATCC 17961 IC90
row,Structure (SMILES),IC90 [µM]
1,"NC1CCN(C(=O)c2ccc(Nc3nccn4c(-c5c[nH]nc5C(F)(F)F)cnc34)cc2Cl)CC1 [Example 318, (4-aminopiperidin-1-yl)-[2-chloro-4-[[3-[3-(trifluoromethyl)-1H-pyrazol-4-yl]imidazo[1,2-a]pyrazin-8-yl]amino]phenyl]methanone]",0.411
2,"CCc1cc(Nc2nccn3c(-c4c[nH]nc4C(F)(F)F)cnc23)ccc1C(=O)NCCCCCN [Example 319, N-(5-aminopentyl)-2-ethyl-4-[[3-[3-(trifluoromethyl)-1H-pyrazol-4-yl]imidazo[1,2-a]pyrazin-8-yl]amino]benzamide hydrochloride]",0.438
3,"N[C@H]1CCN(C(=O)c2ccc(Nc3nccn4c(-c5c[nH]nc5C(F)(F)F)cnc34)cc2Cl)C1 [Example 320, [(3S)-3-aminopyrrolidin-1-yl]-[2-chloro-4-[[3-[3-(trifluoromethyl)-1H-pyrazol-4-yl]imidazo[1,2-a]pyrazin-8-yl]amino]phenyl]methanone]",0.705
4,"C[C@H]1CN(C(=O)c2ccc(Nc3nccn4c(-c5c[nH]nc5C(F)(F)F)cnc34)cc2Cl)CCN1 [Example 321, [2-chloro-4-[[3-[3-(trifluoromethyl)-1H-pyrazol-4-yl]imidazo[1,2-a]pyrazin-8-yl]amino]phenyl]-[(3S)-3-methylpiperazin-1-yl]methanone]",0.901

# Next, values leading:
row,IC90 [µM],Structure (SMILES)
1,0.97,"CN(CCN)C(=O)c1ccc(Nc2nccn3c(-c4c[nH]nc4C(F)(F)F)cnc23)cc1Cl [Example 322, N-(2-aminoethyl)-2-chloro-N-methyl-4-[[3-[3-(trifluoromethyl)-1H-pyrazol-4-yl]imidazo[1,2-a]pyrazin-8-yl]amino]benzamide]"
2,1.05,"C[C@@H]1CN(C(=O)c2ccc(Nc3nccn4c(-c5c[nH]nc5C(F)(F)F)cnc34)cc2Cl)CCN1 [Example 323, [2-chloro-4-[[3-[3-(trifluoromethyl)-1H-pyrazol-4-yl]imidazo[1,2-a]pyrazin-8-yl]amino]phenyl]-[(3R)-3-methylpiperazin-1-yl]methanone]"
3,1.23,"N[C@@H]1CCN(C(=O)c2ccc(Nc3nccn4c(-c5c[nH]nc5C(F)(F)F)cnc34)cc2Cl)C1 [Example 324, [(3R)-3-aminopyrrolidin-1-yl]-[2-chloro-4-[[3-[3-(trifluoromethyl)-1H-pyrazol-4-yl]imidazo[1,2-a]pyrazin-8-yl]amino]phenyl]methanone]"
4,2.02,"C[C@H]1CNCCN1C(=O)c1ccc(Nc2nccn3c(-c4c[nH]nc4C(F)(F)F)cnc23)cc1Cl [Example 325, [2-chloro-4-[[3-[3-(trifluoromethyl)-1H-pyrazol-4-yl]imidazo[1,2-a]pyrazin-8-yl]amino]phenyl]-[(2S)-2-methylpiperazin-1-yl]methanone]"
5,0.211,"CCc1cc(Nc2nccn3c(-c4cn(CC#N)nc4C(F)(F)F)cnc23)ccc1C(=O)NCCCCCN [Example 329, N-(5-aminopentyl)-4-[[3-[1-(cyanomethyl)-3-(trifluoromethyl)pyrazol-4-yl]imidazo[1,2-a]pyrazin-8-yl]amino]-2-ethylbenzamide]"
6,0.401,"Cc1cc(Nc2nccn3c(-c4c[nH]nc4C(F)(F)F)cnc23)ccc1C(=O)N1CCN(C(=O)[C@H](C)N)CC1 [Example 331, (2S)-2-amino-1-[4-[2-methyl-4-[[3-[3-(trifluoromethyl)-1H-pyrazol-4-yl]imidazo[1,2-a]pyrazin-8-yl]amino]benzoyl]piperazin-1-yl]propan-1-one]"
7,0.509,"Cc1cc(Nc2nccn3c(-c4c[nH]nc4C(F)(F)F)cnc23)ccc1C(=O)N1CCN(C(=O)[C@@H]2CCNC2)CC1 [Example 332, [2-methyl-4-[[3-[3-(trifluoromethyl)-1H-pyrazol-4-yl]imidazo[1,2-a]pyrazin-8-yl]amino]phenyl]-[4-[(3R)-pyrrolidine-3-carbonyl]piperazin-1-yl]methanone]"
8,0.695,"Cc1cc(Nc2nccn3c(-c4c[nH]nc4C(F)(F)F)cnc23)ccc1C(=O)N1CCN(C(=O)[C@H]2CCNC2)CC1 [Example 333, [2-methyl-4-[[3-[3-(trifluoromethyl)-1H-pyrazol-4-yl]imidazo[1,2-a]pyrazin-8-yl]amino]phenyl]-[4-[(3S)-pyrrolidine-3-carbonyl]piperazin-1-yl]methanone]"
9,0.782,"Cc1cc(Nc2nccn3c(-c4c[nH]nc4C(F)(F)F)cnc23)ccc1C(=O)N1CCN(C(=O)[C@@H](C)N)CC1 [Example 334, (2R)-2-amino-1-[4-[2-methyl-4-[[3-[3-(trifluoromethyl)-1H-pyrazol-4-yl]imidazo[1,2-a]pyrazin-8-yl]amino]benzoyl]piperazin-1-yl]propan-1-one]"
10,0.148,"C#CCn1cc(-c2cnc3c(Nc4ccc(C(=O)NC)c(CC)c4)nccn23)c(C(F)(F)F)n1 [Example 335, 2-ethyl-N-methyl-4-[[3-[1-prop-2-ynyl-3-(trifluoromethyl)pyrazol-4-yl]imidazo[1,2-a]pyrazin-8-yl]amino]benzamide]"
11,0.152,"CCc1cc(Nc2nccn3c(-c4c[nH]nc4C(F)(F)F)cnc23)ccc1C(=O)NCCCCCCN [Example 336, N-(6-aminohexyl)-2-ethyl-4-[[3-[3-(trifluoromethyl)-1H-pyrazol-4-yl]imidazo[1,2-a]pyrazin-8-yl]amino]benzamide hydrochloride]"
12,0.691,"NCCC(=O)NCCCNC(=O)c1ccc(Nc2nccn3c(-c4c[nH]nc4C(F)(F)F)cnc23)cc1Cl [Example 338, N-[3-(3-aminopropanoylamino)propyl]-2-chloro-4-[[3-[3-(trifluoromethyl)-1H-pyrazol-4-yl]imidazo[1,2-a]pyrazin-8-yl]amino]benzamide hydrochloride]"
13,2.49,"CCc1cc(Nc2nccn3c(-c4cn(CC(N)=O)nc4C(F)(F)F)cnc23)ccc1C(=O)NC [Example 339, 4-[[3-[1-(2-amino-2-oxoethyl)-3-(trifluoromethyl)pyrazol-4-yl]imidazo[1,2-a]pyrazin-8-yl]amino]-2-ethyl-N-methylbenzamide]"
14,0.223,"CCc1cc(Nc2nccn3c(-c4cn(CC#N)nc4C(F)(F)F)cnc23)ccc1C(=O)NC [Example 341, 4-[[3-[1-(cyanomethyl)-3-(trifluoromethyl)pyrazol-4-yl]imidazo[1,2-a]pyrazin-8-yl]amino]-2-ethyl-N-methylbenzamide]"

# Same assay, conditions: read-out: A. baumannii ATCC 17961 IC90, strain ATCC 17961, OD600 growth over 16 h, formate
row,Structure (SMILES),IC90 [µM]
1,"NC1CC(C(=O)N2CCN(C(=O)c3ccc(Nc4nccn5c(-c6c[nH]nc6C(F)(F)F)cnc45)cc3Cl)CC2)C1 (stereo not drawn) [Example 330, [4-(3-aminocyclobutanecarbonyl)piperazin-1-yl]-[2-chloro-4-[[3-[3-(trifluoromethyl)-1H-pyrazol-4-yl]imidazo[1,2-a]pyrazin-8-yl]amino]phenyl]methanone formate]",0.275
